Results reported in US20260258048A1, “LACTAM-CONTAINING IMIDAZOPYRIDAZINE IL-17 INHIBITOR COMPOUNDS” (Janssen Pharmaceutica NV, priority 2023, published 2026).

Key:
[1] = molecular target: IL-17A(FLAG-tagged): IL-17RA(His-tagged) (Homo sapiens, UniProt Q16552, K93Q); assay: IL-17A(FLAG-tagged): IL-17RA(His-tagged) binding disruption Eu-HTRF assay
In short: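 Compound (22-point, 2-fold series) was pre-incubated 1 h at rt with FLAG-IL-17A, added as a 2× solution (1 μM). A 2× mix of C-terminal 10×His IL-17RA, Eu-anti-FLAG donor and D2-anti-His acceptor in PBS/0.01% Triton X-100/200 mM KF was then added for 2 h at rt. The 665/615 nm ratio was fitted to one-site competition for IC50.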

[2] = system: IL-17A-induced G-CSF production in human normal keratinocyte (NHK); assay: NHK assay: IL-17A-induced G-CSF production in normal human keratinocytes; format: cell-based; conditions: 24 h, IL-17A 5 ng/mL
In short: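 Adult keratinocytes at 3000-4000 cells/well; recombinant human IL-17A pre-incubated 1 h at rt with titrated compound, then added to cells (final 5 ng/mL IL-17A, 0.2% DMSO, 5% FBS) for 24 h at 37 °C. Supernatant G-CSF quantified by HTRF against a standard curve to give IC50; viability checked by CellTiter-Glo versus DMSO.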

[3] = class of the average IC50 where tested more than once
[4] = Homo sapiens, Keratinocyte, class of the average IC50 where tested more than once
[5] = Homo sapiens, Keratinocyte, value in brackets, Table 4

Sequence of UniProt Q16552 (Q16552 with tags, fused parts or gaps K93Q): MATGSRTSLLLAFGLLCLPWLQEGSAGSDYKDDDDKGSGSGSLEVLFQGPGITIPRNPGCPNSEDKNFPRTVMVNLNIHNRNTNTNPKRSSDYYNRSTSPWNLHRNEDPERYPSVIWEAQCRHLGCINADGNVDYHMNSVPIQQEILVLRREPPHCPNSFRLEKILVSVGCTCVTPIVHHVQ

SMILES | IC50 [1, 3] [nM] | IC50 [2, 4] [nM] | IC50 [2, 3] [nM] | IC50 ([1]; value in brackets, Table 4) [nM] | IC50 [2, 5] [nM] | potency increase in the HTRF IC50 when compared to its C-3 epimer ([1]; (S)-configuration on C-3 (cis) vs (R)-epimer (trans): Example 51 vs 52, Example 59 vs 60)
O=C(N[C@H](c1cn2ncc(C[C@H]3C[C@H](C(F)(F)F)NC3=O)cc2n1)C1CCC(F)(F)CC1)c1nonc1C1CC1 (relative stereo) [Example 69, 4-Cyclopropyl-N—((S)-(4,4-difluorocyclohexyl)(7-(((3S*,5R*)-2-oxo-5-(trifluoromethyl)pyrrolidin-3-yl)methyl)imidazo[1,2-b]pyridazin-2-yl)methyl)-1,2,5-oxadiazole-3-carboxamide] | 400 to 4000 | 400 to 4000 |  |  |  | 
CC1(Cc2cnn3cc([C@@H](NC(=O)c4nonc4C4CC4)C4CCC(F)(F)CC4)nc3c2)CCNC1=O (single isomer, unassigned) [Example 54, 4-Cyclopropyl-N—((S)-(4,4-difluorocyclohexyl)(7-(((S*)-3-methyl-2-oxopyrrolidin-3-yl)methyl)imidazo[1,2-b]pyridazin-2-yl)methyl)-1,2,5-oxadiazole-3-carboxamide] | 400 to 4000 |  | > 4000 |  |  | 
C[C@H]1C[C@@H](Cc2cnn3cc([C@@H](NC(=O)c4nonc4C4CC4)C4CCC(F)(F)CC4)nc3c2)C(=O)N1 (relative stereo) [Example 82, 4-Cyclopropyl-N—((S)-(4,4-difluorocyclohexyl)(7-(((3R*,5S*)-5-methyl-2-oxopyrrolidin-3-yl)methyl)imidazo[1,2-b]pyridazin-2-yl)methyl)-1,2,5-oxadiazole-3-carboxamide] | 400 to 4000 | > 4000 |  |  |  | 
CC(C)n1nccc1C(=O)N[C@H](c1cn2ncc(C[C@@H]3C[C@@H](C(F)(F)F)NC3=O)cc2n1)C1CCC(F)(F)CC1 [Example 52, N—((S)-(4,4-Difluorocyclohexyl)(7-(((3R,5S)-2-oxo-5-(trifluoromethyl)pyrrolidin-3-yl)methyl)imidazo[1,2-b]pyridazin-2-yl)methyl)-1-isopropyl-1H-pyrazole-5-carboxamide] | 400 to 4000 | 400 to 4000 |  | 2450 | 2830 | 
O=C(N[C@H](c1cn2ncc(CC3C[C@@H](C4CC4)NC3=O)cc2n1)C1CCC(F)(F)CC1)c1nonc1C1CC1 (single isomer, unassigned) [Example 42, 4-Cyclopropyl-N—((S)-(7-(((3S*,5S)-5-cyclopropyl-2-oxopyrrolidin-3-yl)methyl)imidazo[1,2-b]pyridazin-2-yl)(4,4-difluorocyclohexyl)methyl)-1,2,5-oxadiazole-3-carboxamide] | < 400 |  | < 400 |  |  | 
O=C(N[C@H](c1cn2ncc([C@@H]3C[C@@]34C[C@@H](C(F)(F)F)NC4=O)cc2n1)C1CCC(F)(F)CC1)c1nonc1C1CC1 (relative stereo) [Example 38, 4-Cyclopropyl-N—((S)-(4,4-difluorocyclohexyl)(7-((1S*,3R*,6S)-4-oxo-6-(trifluoromethyl)-5-azaspiro[2.4]heptan-1-yl)imidazo[1,2-b]pyridazin-2-yl)methyl)-1,2,5-oxadiazole-3-carboxamide] | < 400 | 400 to 4000 |  |  |  | 
CC1(C)C[C@H](Cc2cnn3cc([C@@H](NC(=O)c4nonc4C4CC4)C4CCC(F)(F)CC4)nc3c2)C(=O)N1 (single isomer, unassigned) [Example 14] | > 4000 | > 4000 |  |  |  | 
CC(C)[C@H]1C[C@@H](Cc2cnn3cc([C@@H](NC(=O)c4nonc4C4CC4)C4CCC(F)(F)CC4)nc3c2)C(=O)N1 (relative stereo) [Example 94, 4-Cyclopropyl-N—[(S)-(4,4-difluorocyclohexyl)-[7-[[(3R*,5R*)-5-isopropyl-2-oxo-pyrrolidin-3-yl]methyl]imidazo[1,2-b]pyridazin-2-yl]methyl]-1,2,5-oxadiazole-3-carboxamide] | < 400 | < 400 |  |  |  | 
C[C@@H](c1cnn2cc([C@@H](NC(=O)c3nonc3C3CC3)C3CCC(F)(F)CC3)nc2c1)[C@@H]1C[C@@H](C(F)(F)F)NC1=O (single isomer, unassigned) [Example 80, 4-Cyclopropyl-N—((S)-(4,4-difluorocyclohexyl(7-((R*)-1-((3S*,5S)-2-oxo-5-(trifluoromethyl)pyrrolidin-3-yl)ethyl)imidazo[1,2-b]pyridazin-2-yl)methyl)-1,2,5-oxadiazole-3-carboxamide] | 400 to 4000 | 400 to 4000 |  |  |  | 
O=C(N[C@H](c1cn2ncc(C[C@@]3(O)C[C@@H](C(F)(F)F)NC3=O)cc2n1)C1CCC(F)(F)CC1)c1nonc1C1CC1 [Example 36] | < 400 | < 400 |  |  |  | 
CC(C)[C@H]1C[C@H](Cc2cnn3cc([C@@H](NC(=O)c4nonc4C4CC4)C4CCC(F)(F)CC4)nc3c2)C(=O)N1 (relative stereo) [Example 93, 4-Cyclopropyl-N—[(S)-(4,4-difluorocyclohexyl)-[7-[[(3S*,5R*)-5-isopropyl-2-oxo-pyrrolidin-3-yl]methyl]imidazo[1,2-b]pyridazin-2-yl]methyl]-1,2,5-oxadiazole-3-carboxamide] | 400 to 4000 | 400 to 4000 |  |  |  | 
O=C(N[C@H](c1cn2ncc(C[C@]34CC[C@@H](C3)NC4=O)cc2n1)C1CCC(F)(F)CC1)c1nonc1C1CC1 (single isomer, unassigned) [Example 18] | 400 to 4000 | 400 to 4000 |  |  |  | 
Cc1nonc1C(=O)N[C@H](c1cn2ncc(CC3(CN(C)C)C[C@@H](C(F)(F)F)NC3=O)cc2n1)C1CCC(F)(F)CC1 (single isomer, unassigned) [Example 105, N—((S)-(4,4-Difluorocyclohexyl)(7-(((3S*,5S)-3-((dimethylamino)methyl)-2-oxo-5-(trifluoromethyl)pyrrolidin-3-yl)methyl)imidazo[1,2-b]pyridazin-2-yl)methyl)-4-methyl-1,2,5-oxadiazole-3-carboxamide] | < 400 | < 400 |  |  |  | 
C[C@@H]1CNC(=O)[C@@H]1Cc1cnn2cc([C@@H](NC(=O)c3nonc3C3CC3)C3CCC(F)(F)CC3)nc2c1 (relative stereo) [Example 88, 4-Cyclopropyl-N—[(S)-(4,4-difluorocyclohexyl)-[7-[[(3R*,4S*)-4-methyl-2-oxo-pyrrolidin-3-yl]methyl]imidazo[1,2-b]pyridazin-2-yl]methyl]-1,2,5-oxadiazole-3-carboxamide] | 400 to 4000 | > 4000 |  |  |  | 
O=C(N[C@H](c1cn2ncc([C@H]3C[C@]34C[C@@H](C(F)(F)F)NC4=O)cc2n1)C1CCC(F)(F)CC1)c1nonc1C1CC1 (single isomer, unassigned) [Example 40] | > 4000 | > 4000 |  |  |  | 
CC[C@@H]1C[C@H](Cc2cnn3cc([C@@H](NC(=O)c4nonc4C4CC4)C4CCC(F)(F)CC4)nc3c2)C(=O)N1 (relative stereo) [Example 89, 4-Cyclopropyl-N—[(S)-(4,4-difluorocyclohexyl)-[7-[[(3S*,5R*)-5-ethyl-2-oxo-pyrrolidin-3-yl]methyl]imidazo[1,2-b]pyridazin-2-yl]methyl]-1,2,5-oxadiazole-3-carboxamide] | < 400 | > 4000 |  |  |  | 
O=C(N[C@H](c1cn2ncc(C[C@H]3C(=O)NCC[C@H]3C(F)(F)F)cc2n1)C1CCC(F)(F)CC1)c1nonc1C1CC1 (relative stereo) [Example 44, 4-Cyclopropyl-N—((S)-(4,4-difluorocyclohexyl)(7-(((3R*,4R*)-2-oxo-4-(trifluoromethyl)piperidin-3-yl)methyl)imidazo[1,2-b]pyridazin-2-yl)methyl)-1,2,5-oxadiazole-3-carboxamide] | 400 to 4000 | > 4000 |  |  |  | 
CC1(C(=O)c2cnn3cc([C@@H](NC(=O)c4nonc4C4CC4)C4CCC(F)(F)CC4)nc3c2)C[C@@H](C(F)(F)F)NC1=O (mixture of isomers) [Example 102, 4-Cyclopropyl-N—[(S)-(4,4-difluorocyclohexyl)-[7-[(3RS,5S)-3-methyl-2-oxo-5-(trifluoromethyl)pyrrolidine-3-carbonyl]imidazo[1,2-b]pyridazin-2-yl]methyl]-1,2,5-oxadiazole-3-carboxamide] | < 400 | < 400 |  |  |  | 
O=C(N[C@H](c1cn2ncc(C[C@H]3C[C@@H](C(F)(F)F)NC3=O)cc2n1)C1CCC(F)(F)CC1)c1nonc1C1CC1 [Example 59, 4-Cyclopropyl-N—[(S)-(4,4-difluorocyclohexyl)-[7-[[(3S,5S)-2-oxo-5-(trifluoromethyl)pyrrolidin-3-yl]methyl]imidazo[1,2-b]pyridazin-2-yl]methyl]-1,2,5-oxadiazole-3-carboxamide] | < 400 | < 400 |  | 14 | 7.8 | more than 80 fold
O=C(N[C@H](c1cn2ncc([C@H](O)[C@H]3C[C@H](C(F)(F)F)NC3=O)cc2n1)C1CCC(F)(F)CC1)c1nonc1C1CC1 (relative stereo) [Example 63, 4-Cyclopropyl-N—((S)-(4,4-difluorocyclohexyl)(7-((R*)-hydroxy((3R*,5R*)-2-oxo-5-(trifluoromethyl)pyrrolidin-3-yl)methyl)imidazo[1,2-b]pyridazin-2-yl)methyl)-1,2,5-oxadiazole-3-carboxamide] | 400 to 4000 | > 4000 |  |  |  | 
